The source of these data is patent US4470926A, “Medicaments containing thymosin alpha 1 fragments and having an immunostimulant action, and fragments of thymosin alpha 1” (priority 1980, dated 1984).

Test [1] deals with human peripheral lymphocytes. Type of test: cell-based. The note with it: for Optimum concentr.: concentration of optimum E-rosette stimulation after α-amanitin block; for Relative number of the E-rosettes (%): after inhibition with α-amanitin. An excerpt:
The immunological test methods used were the E-rosette test according to Wara, Ammann et al. (N.Y. Acad. Sci. 249 (1975) 308 and N. Engl. J. Med. 292 (1975) 70) and the method of mixed lymphocyte culture, both methods involving additional inhibition of cellular RNS polymerase by alpha-amanitin. The E-rosette test is based on the fact that the percentage of E-rosette forming cells in peripheral human blood is a measure of the content of fully mature T-cells, which form with sheep's red blood cells characteristic aggregates which can be counted under the microscope.
For the performance of the E-rosette test, peripheral human lymphocytes are isolated by a gradient centrifugation. Their RNS polymerase is blocked by alpha-amanitin. […] This value is taken as 100% in a relative numerical scale, and after the alpha-amanitin blockage it is taken to be 0%; see Table XII.

The subject of test [2] is human peripheral lymphocytes. Type of test: cell-based. The conditions noted are these: for stimulation (+) / inhibition (-) (%) of the mixed lymphocyte culture: 1 μg fragment per ml; for (%) Stimulation of allogenic mixed culture: 1 microgram thymosin α1 per ml. Here is the method:
The test in mixed lymphocyte cultures is based on the fact that T-cells are made to proliferate by stimulation with allogenic antigens. For the performance of the test, the lymphocytes of donor A ("responder") are incubated with those of donor B ("stimulator") for 4 to 5 days. Then ^3 H-thymidin is added and the rate of proliferation is measured on the basis of the increasing radioactivity of the cell culture due to the installation of the radioactive material. Since both populations A and B might be made to proliferate, resulting in an unclear effect, population B is blocked with mitomycin C in all metabolical activities. This test is routinely used before organ transplants to determine the immunological compatibility of donor and receiver tissues.

[3] abbreviates: after α-amanitin block (=0%), normal level without any addition = 100%, at optimum concentration.
[4] abbreviates: cell pair AB, culture blocked with 1 μg α-amanitin per ml.
The mark [5] stands for this setting: cell pair AB, not blocked with amanitin, culture without addition = 0%.
[6] abbreviates: cell pair BA, culture blocked with 1 μg α-amanitin per ml.
Where [7] appears, read: cell pair CD, not blocked with amanitin, culture without addition = 0%.
Setting [8] is: cell pair DC, not blocked with amanitin, culture without addition = 0%.
Setting [9] is: cell pair CD, culture blocked with 1 μg α-amanitin per ml.
Setting [10] is: cell pair DC, culture blocked with 1 μg α-amanitin per ml.
Setting [11] is: cell pair BA, not blocked with amanitin, culture without addition = 0%.

Read-outs that look alike come from different tables or passages of the source. Residues, ends and D or L forms follow the SMILES beside them. No end group written: not given here.

As to `C[C@H](NC(=O)[C@@H](N)CCC(=O)O)C(=O)N[C@@H](CCC(=O)O)C(=O)N[C@@H](CC(N)=O)C(=O)O` [V] (H-EAEN-OH), the “activity in the E-rosette test (in words)” value (from here on “activity”) in test [1] is “activity in the E-rosette test only at a relatively high dosage”. Besides, the “E-rosette number (%)” value in test [1] (setting [3]) is on record as 42%. Besides, in test [1], the “Optimum concentr.” value was 113 µM. In test [2], the “action in the mixed lymphocyte culture (in words)” value (shortened to “action”) was “very considerable stimulation of T-cell proliferation”. Besides, the “stimulation (+) / inhibition (-) (%) of the mixed lymphocyte culture” value (from here on “stimulation (+) / inhibition (-) (%)”) in test [2] (setting [4]) is listed as -47%; in test [2] (setting [5]), “+223%”; in test [2] (setting [6]), -94%; in test [2] (setting [7]), “+45%”; in test [2] (setting [8]), “+37%”.
With Ac-SDAAVDTSSEIT [IX], the “activity” value in test [1] was “more strongly stimulated”. The “E-rosette number (%)” value in test [1] (setting [3]) is listed as 40%. Besides, the “Optimum concentr.” value in test [1] was 4 µM. The “action” value in test [2] was “surprisingly pronounced inhibiting action”. Besides, the “stimulation (+) / inhibition (-) (%)” value in test [2] (setting [4]) is on record as -30%; in test [2] (setting [5]), -74%; in test [2] (setting [6]), -78%; in test [2] (setting [9]), “+63%”; in test [2] (setting [7]) it was -63%; in test [2] (setting [10]) it was “+60%”. Also, in test [2] (setting [8]), the “stimulation (+) / inhibition (-) (%)” value was -77%.
Consider KDAAVD [Ia], for which the “activity” value in test [1] is recorded as “especially active”. Also, in test [1] (setting [3]), the “E-rosette number (%)” value stood at 93%. For the same molecule, the “Optimum concentr.” value in test [1] worked out at 16 µM. Moreover, in test [2], the “action” value is given as “surprisingly pronounced inhibiting action”. For the same molecule, the “stimulation (+) / inhibition (-) (%)” value is given as -10% in test [2] (setting [4]); -8% in test [2] (setting [5]); -15% in test [2] (setting [11]); -53% in test [2] (setting [9]); -73% in test [2] (setting [7]); -7% in test [2] (setting [10]). The “stimulation (+) / inhibition (-) (%)” value in test [2] (setting [8]) was -31%.
In the case of KEVVE [IV], the “activity” value in test [1] is “activity in the E-rosette test only at a relatively high dosage”. The “E-rosette number (%)” value in test [1] (setting [3]) is 45%. Also, in test [1], the “Optimum concentr.” value is 83 µM. Besides, in test [2], the “action” value is “very considerable stimulation of T-cell proliferation”. Moreover, the “stimulation (+) / inhibition (-) (%)” value in test [2] (setting [4]) was -87%; in test [2] (setting [5]), -53%; in test [2] (setting [6]), -97%; in test [2] (setting [9]), “+35%”; in test [2] (setting [7]), “+37%”; in test [2] (setting [10]), “+100%”. Besides, in test [2] (setting [8]), the “stimulation (+) / inhibition (-) (%)” value is given as “+2%”.
Take KEVVEEAEN [VI]: the “E-rosette number (%)” value in test [1] (setting [3]) is reported as 16%. In test [1], the “Optimum concentr.” value was 10 µM. The “stimulation (+) / inhibition (-) (%)” value in test [2] (setting [4]) was “+279%”; in test [2] (setting [5]), “+153%”; in test [2] (setting [6]) it was -96%; in test [2] (setting [9]), “+83%”; in test [2] (setting [7]), “+57%”; in test [2] (setting [10]), “+160%”.
For the molecule “Synthetic thymosin α1: parent substance, totally synthetic thymosin α1, 28 amino acids, analytically pure (SDAAVDTSSEITTKDLKEKKEVVEEAEN; ends and bridges not checked; UniProt P06454 2-29, looked up) [reference compound]”, the “Relative number of the E-rosettes (%)” value was found to be 39% in test [1] (0.25 μg per culture); 100% in test [1] (0.50 μg per culture); 64% in test [1] (1.00 μg per culture); 57% in test [1] (2.50 μg per culture); 33% in test [1] (5.00 μg per culture). The “E-rosette number (%)” value in test [1] (setting [3]) is on record as 100%. Besides, the “Optimum concentr.” value in test [1] is 1.6 µM. Further, the “(%) Stimulation of allogenic mixed culture” value in test [2] (cell pair AB, (a) culture not inhibited, without addition = 0%) is on record as “+20%”; in test [2] (cell pair AB, (b) culture inhibited with 1 microgram amanitin per ml), “+86%”; in test [2] (cell pair AD, (a) culture not inhibited) it was “+4%”; in test [2] (cell pair AD, (b) culture inhibited with 1 microgram amanitin per ml) it was “+37%”; in test [2] (cell pair BA, (a) culture not inhibited), “+27%”; in test [2] (cell pair BA, (b) culture inhibited with 1 microgram amanitin per ml), “+47%”. For the same molecule, the “(%) Stimulation of allogenic mixed culture” value in test [2] (cell pair BD, (a) culture not inhibited) is listed as “+45%”; in test [2] (cell pair BD, (b) culture inhibited with 1 microgram amanitin per ml), “+51%”; in test [2] (cell pair DA, (a) culture not inhibited), “+44%”; in test [2] (cell pair DB, (a) culture not inhibited), “+27%”; in test [2] (cell pair DB, (b) culture inhibited with 1 microgram amanitin per ml) it was “+1550%”.
TKDLKEKKEVVEEAEN [VII]: in test [1], the “E-rosette number (%)” value came out at 41%, the “activity” value was “more strongly stimulated” and the “Optimum concentr.” value came to 6 µM.
In the case of TSSEIT [II], in test [1] (setting [3]), the “E-rosette number (%)” value was determined as 29%. Further, in test [1], the “Optimum concentr.” value is 80 µM. For the same molecule, the “stimulation (+) / inhibition (-) (%)” value in test [2] (setting [4]) was -11%; in test [2] (setting [6]), -80%; in test [2] (setting [11]), -18%; in test [2] (setting [9]), -98%; in test [2] (setting [7]), -53%; in test [2] (setting [10]), “+20%”. Further, the “stimulation (+) / inhibition (-) (%)” value in test [2] (setting [8]) was “+30%”.
